Patent US9708287B2, “Chiral compounds, compositions, products and methods employing same” (Cayman Chemical Company Incorporated, priority 2012, dated 2017)

System: human skin
Test: topical administration to a human in need of beautifying
Format: in vivo
Conditions: twice daily treatments, after several weeks
Protocol: The chiral, non-racemic analog, (+) deoxyArbutin ((+)-dA), prepared as described in Example I is administered topically to a human in need of beautifying.

Oc1ccc(OC2CCCCO2)cc1 (racemic) [(+) deoxyArbutin, 4-(tetrahydro-2H-pyran-2-yloxy)phenol]
health and vitality of the treated areas of the skin: increased health and vitality | pigmentation of the treated areas of the skin: decreased pigmentation
